Experimental data from patent US20060069132A1, “Azolecarboxamide herbicides” (priority 2004, published 2006).

Columns and labels:
[1] = test system: giant foxtail; experiment: Test B pre-/postemergence herbicide test; format: in vivo, Setaria faberi; settings: for Plant response rating, Foxtail, Giant: preemergence; for Foxtail, Giant plant response rating: postemergence, visual rating, scale 0 (no effect) to 100 (complete control)
Summary of the method: (§1)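 Test chemicals in a non-phytotoxic solvent mixture with surfactant were applied preemergence to seeded species and postemergence to plants 2-18 cm tall (1- to 4-leaf stage); rice and barnyardgrass were also tested in a flooded paddy at the 2-leaf stage. Visual rating versus controls after 13-15 days in greenhouse, scale 0 (no effect) to 100 (complete control).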

[2] = test system: morningglory; experiment: Test A pre-/postemergence herbicide test; format: in vivo, Ipomoea spp.
Summary of the method: (§2)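 Sandy loam soil given preemergence directed spray; plants at 2 to 10 cm, one- to two-leaf stage, sprayed to runoff postemergence, compounds in non-phytotoxic solvent with surfactant. Injury rated visually versus untreated controls after about ten greenhouse days, 0 (no effect) to 100 (complete control); dash means not tested.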

[3] = test system: small flower umbrella sedge; experiment: Test B flooded paddy test; format: in vivo, Cyperus difformis; settings: 1000 g ai/ha, visual rating, scale 0 to 100 (0 no effect, 100 complete control), 13 to 15 days
Summary of the method: (§3)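 Read-out: visual comparison with controls, scored 0 to 100, where 100 means complete control and 0 no effect. Formulated chemicals were applied postemergence to plants 2–18 cm tall (1- to 4-leaf), or to flooded-paddy plants at the 2-leaf stage, then held 13 to 15 days under glass.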

[4] = test system: pigweed; experiment: Test B pre-/postemergence herbicide test; format: in vivo, Amaranthus retroflexus; settings: for Plant response rating, Pigweed: preemergence; for Pigweed plant response rating: postemergence, visual rating, scale 0 (no effect) to 100 (complete control)
Summary of the method: as §1

[5] = test system: blackgrass; experiment: Test B postemergence herbicide test; format: in vivo, Alopecurus myosuroides; settings: postemergence, visual rating, scale 0 (no effect) to 100 (complete control)
Summary of the method: as §3

[6] = test system: barnyardgrass; experiment: Test A pre-/postemergence herbicide test; format: in vivo, Echinochloa crus-galli
Summary of the method: as §2

[7] = test system: cocklebur; experiment: Test B pre-/postemergence herbicide test; format: in vivo, Xanthium strumarium; settings: for Plant response rating, Cocklebur: preemergence; for Cocklebur plant response rating: postemergence, visual rating, scale 0 (no effect) to 100 (complete control)
Summary of the method: (§4)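 Pre: seeds sown, then sprayed. Post: 1–4-leaf plants (2–18 cm) sprayed at the same time. Paddy: flooded, treated at 2-leaf stage. Formulation: non-phytotoxic solvent with surfactant. Greenhouse 13–15 days; visual 0–100 score relative to controls.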

[8] = test system: wheat; experiment: Test B postemergence herbicide test; format: in vivo, Triticum aestivum; set-up: key to Wheat plant response rating: 0 = no effect, 100 = complete control; settings: postemergence, visual rating, scale 0 (no effect) to 100 (complete control)
Summary of the method: (§5)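 Postemergence plants were sprayed with formulated test chemicals at 2 to 18 cm height (1- to 4-leaf stage); paddy species were grown to the 2-leaf stage. After 13 to 15 days in a greenhouse, injury was rated visually against untreated controls on a 0–100 scale (0 = no effect, 100 = complete control).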

[9] = test system: velvetleaf; experiment: Test B pre-/postemergence herbicide test; format: in vivo, Abutilon theophrasti; settings: for Plant response rating, Velvetleaf: preemergence; for Velvetleaf plant response rating: postemergence, visual rating, scale 0 (no effect) to 100 (complete control)
Summary of the method: as §1

[10] = test system: barnyardgrass; experiment: Test B pre-/postemergence herbicide test; format: in vivo, Echinochloa crus-galli; settings: for Plant response rating, Barnyardgrass: preemergence; for Barnyardgrass plant response rating: postemergence, visual rating, scale 0 (no effect) to 100 (complete control)
Summary of the method: as §4

[11] = test system: giant foxtail; experiment: Test A pre-/postemergence herbicide test; format: in vivo, Setaria faberi
Summary of the method: as §2

[12] = test system: redroot pigweed; experiment: Test A pre-/postemergence herbicide test; format: in vivo, Amaranthus retroflexus
Summary of the method: as §2

[13] = test system: lambsquarters; experiment: Test B pre-/postemergence herbicide test; format: in vivo, Chenopodium album; settings: for Plant response rating, Lambsquarters: preemergence; for Lambsquarters plant response rating: postemergence, visual rating, scale 0 (no effect) to 100 (complete control)
Summary of the method: as §1

[14] = test system: large crabgrass; experiment: Test B pre-/postemergence herbicide test; format: in vivo, Digitaria sanguinalis; settings: for Plant response rating, Crabgrass, Large: preemergence; for Crabgrass, Large plant response rating: postemergence, visual rating, scale 0 (no effect) to 100 (complete control)
Summary of the method: as §1

[15] = test system: wild oat; experiment: Test B postemergence herbicide test; format: in vivo, Avena fatua; settings: postemergence, visual rating, scale 0 (no effect) to 100 (complete control)
Summary of the method: as §5

[16] = test system: barnyardgrass; experiment: Test B flooded paddy test; format: in vivo, Echinochloa crus-galli; settings: 1000 g ai/ha, visual rating, scale 0 to 100 (0 no effect, 100 complete control), 13 to 15 days
Summary of the method: as §3

[17] = test system: Surinam grass; experiment: Test B pre-/postemergence herbicide test; format: in vivo, Urochloa decumbens; settings: for Plant response rating, Surinam Grass: preemergence; for Surinam Grass plant response rating: postemergence, visual rating, scale 0 (no effect) to 100 (complete control)
Summary of the method: as §1

[18] = test system: rice; experiment: Test B pre-/postemergence herbicide test; format: in vivo, Oryza sativa; settings: preemergence, 125 g ai/ha; 0 to 100 scale, 0 is no effect, 100 is complete control
Summary of the method: as §1

[19] = test system: ducksalad; experiment: Test B flooded paddy test; format: in vivo, Heteranthera limosa; settings: 1000 g ai/ha, visual rating, scale 0 to 100 (0 no effect, 100 complete control), 13 to 15 days
Summary of the method: as §3

[20] = test system: corn; experiment: Test B pre-/postemergence herbicide test; format: in vivo, Zea mays; settings: for Plant response rating, Corn: preemergence; for Corn plant response rating: postemergence, visual rating, scale 0 (no effect) to 100 (complete control)
Summary of the method: as §1

[21] = test system: large crabgrass; experiment: Test A pre-/postemergence herbicide test; format: in vivo, Digitaria sanguinalis
Summary of the method: as §2

[22] = test system: morningglory; experiment: Test B pre-/postemergence herbicide test; format: in vivo, Ipomoea coccinea; settings: for Plant response rating, Morningglory: preemergence; for Morningglory plant response rating: postemergence, visual rating, scale 0 (no effect) to 100 (complete control)
Summary of the method: as §4

[23] = test system: velvetleaf; experiment: Test A pre-/postemergence herbicide test; format: in vivo, Abutilon theophrasti
Summary of the method: as §2

[24] = test system: rice; experiment: Test B flooded paddy test; format: in vivo, Oryza sativa; settings: 1000 g ai/ha, visual rating, scale 0 to 100 (0 no effect, 100 complete control), 13 to 15 days
Summary of the method: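 Paddy species grown to the 2-leaf stage under flooding; blackgrass sprayed postemergence at 2–18 cm (1- to 4-leaf stage). Plants kept in a greenhouse for 13 to 15 days, then visually rated against controls on 0 (no effect) to 100 (complete control).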

[25] = 500 g ai/ha, visual rating 0-100, 0 no effect, 100 complete control
[26] = 125 g ai/ha, 0 to 100 scale, 0 is no effect, 100 is complete control
[27] = Postemergence, 500 g ai/ha, 0 to 100 scale, 0 no effect, 100 complete control
[28] = Postemergence, 2000 g ai/ha, 0 to 100 scale, 0 no effect, 100 complete control
[29] = Preemergence, 500 g ai/ha, visual rating, 0 to 100 scale (0 no effect, 100 complete control)
[30] = Preemergence, 2000 g ai/ha, visual rating, 0 to 100 scale (0 no effect, 100 complete control)
[31] = preemergence, 500 g ai/ha, visual injury, 0 to 100 scale (0 no effect, 100 complete control)

Cn1nc(C(C)(C)C)cc1C(=O)Nc1cccc(C#N)c1 [Compound 121]
Plant response rating, Foxtail, Giant [1, 25]: 70
Foxtail, Giant plant response rating ([1]; 125 g ai/ha): 0
Foxtail, Giant plant response rating ([1]; 500 g ai/ha): 10
Plant response rating, Foxtail, Giant [1, 26]: 0
Morningglory plant response rating [2, 27]: 20
Plant response rating, Morningglory [2, 28]: 20
Morningglory plant response rating [2, 29]: 5
Morningglory plant response rating [2, 30]: 20
Sedge, Umbrella plant response rating [3]: 0
Plant response rating, Pigweed [4, 25]: 100
Pigweed plant response rating ([4]; 125 g ai/ha): 30
Pigweed plant response rating ([4]; 500 g ai/ha): 50
Plant response rating, Pigweed [4, 26]: 80
Blackgrass plant response rating ([5]; 125 g ai/ha): 0
Blackgrass plant response rating ([5]; 500 g ai/ha): 0
Barnyardgrass plant response rating [6, 27]: 10
Plant response rating, Barnyardgrass [6, 28]: 35
Barnyardgrass plant response rating [6, 29]: 15
Barnyardgrass plant response rating [6, 30]: 40
Plant response rating, Cocklebur [7, 25]: 0
Cocklebur plant response rating ([7]; 125 g ai/ha): 10
Cocklebur plant response rating ([7]; 500 g ai/ha): 20
Plant response rating, Cocklebur [7, 26]: 0
Wheat plant response rating ([8]; 125 g ai/ha): 0
Wheat plant response rating ([8]; 500 g ai/ha): 0
Plant response rating, Velvetleaf [9, 25]: 20
Velvetleaf plant response rating ([9]; 125 g ai/ha): 10
Velvetleaf plant response rating ([9]; 500 g ai/ha): 20
Plant response rating, Velvetleaf [9, 26]: 0
Plant response rating, Barnyardgrass [10, 25]: 80
Barnyardgrass plant response rating ([10]; 125 g ai/ha): 0
Barnyardgrass plant response rating ([10]; 500 g ai/ha): 0
Plant response rating, Barnyardgrass [10, 26]: 0
Foxtail, Giant plant response rating [11, 27]: 15
Plant response rating, Foxtail, Giant [11, 28]: 25
Foxtail, Giant plant response rating [11, 29]: 25
Foxtail, Giant plant response rating [11, 30]: 75
Pigweed plant response rating [12, 27]: 90
Plant response rating, Pigweed [12, 28]: 100
Pigweed plant response rating [12, 30]: 100
Pigweed plant response rating [12, 31]: 95
Plant response rating, Lambsquarters [13, 25]: 100
Lambsquarters plant response rating ([13]; 125 g ai/ha): 80
Lambsquarters plant response rating ([13]; 500 g ai/ha): 80
Plant response rating, Lambsquarters [13, 26]: 70
Plant response rating, Crabgrass, Large [14, 25]: 50
Crabgrass, Large plant response rating ([14]; 125 g ai/ha): 10
Crabgrass, Large plant response rating ([14]; 500 g ai/ha): 10
Plant response rating, Crabgrass, Large [14, 26]: 0
Oat, Wild plant response rating ([15]; 125 g ai/ha): 10
Oat, Wild plant response rating ([15]; 500 g ai/ha): 30
Barnyardgrass plant response rating [16]: 0
Plant response rating, Surinam Grass [17, 25]: 20
Surinam Grass plant response rating ([17]; 125 g ai/ha): 10
Surinam Grass plant response rating ([17]; 500 g ai/ha): 30
Plant response rating, Surinam Grass [17, 26]: 0
Plant response rating, Rice [18]: 0
Ducksalad plant response rating [19]: 0
Plant response rating, Corn [20, 25]: 0
Corn plant response rating ([20]; 125 g ai/ha): 0
Corn plant response rating ([20]; 500 g ai/ha): 10
Plant response rating, Corn [20, 26]: 0
Crabgrass, Large plant response rating [21, 27]: 10
Plant response rating, Crabgrass, Large [21, 28]: 10
Crabgrass, Large plant response rating [21, 29]: 10
Crabgrass, Large plant response rating [21, 30]: 75
Plant response rating, Morningglory [22, 25]: 20
Morningglory plant response rating ([22]; 125 g ai/ha): 0
Morningglory plant response rating ([22]; 500 g ai/ha): 0
Plant response rating, Morningglory [22, 26]: 0
Velvetleaf plant response rating [23, 27]: 10
Plant response rating, Velvetleaf [23, 28]: 15
Velvetleaf plant response rating [23, 30]: 30
Velvetleaf plant response rating [23, 31]: 10
Rice plant response rating [24]: 0
